Assay results published in PubChem BioAssay (NCI).
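How tested: cells in 96-well plates exposed to compound for 48 hours at five concentrations. TGI marks complete inhibition of growth.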

Key:
Assay in all cases: NCI anticancer screen, dose series, 48 h
786-0 renal = test system: 786-0 renal
A549 NSCLC = test system: A549 NSCLC
ACHN renal = test system: ACHN renal
CAKI-1 renal = test system: CAKI-1 renal
CCRF-CEM leukemia = test system: CCRF-CEM leukemia
COLO 205 colon = test system: COLO 205 colon
DU-145 prostate = test system: DU-145 prostate
EKVX NSCLC = test system: EKVX NSCLC
HCC-2998 colon = test system: HCC-2998 colon
HCT-116 colon = test system: HCT-116 colon
HCT-15 colon = test system: HCT-15 colon
HL-60(TB) leukemia = test system: HL-60(TB) leukemia
HOP-62 NSCLC = test system: HOP-62 NSCLC
HS 578T breast = test system: HS 578T breast
HT29 colon = test system: HT29 colon
IGROV1 ovarian = test system: IGROV1 ovarian
K-562 leukemia = test system: K-562 leukemia
KM12 colon = test system: KM12 colon
M14 melanoma = test system: M14 melanoma
MCF7 breast = test system: MCF7 breast
MDA-MB-231 breast = test system: MDA-MB-231 breast
MDA-MB-435 = test system: MDA-MB-435
MDA-N = test system: MDA-N
MOLT-4 leukemia = test system: MOLT-4 leukemia
NCI-H226 lung = test system: NCI-H226 lung
NCI-H460 lung = test system: NCI-H460 lung
NCI/ADR-RES ovarian = test system: NCI/ADR-RES ovarian
OVCAR-4 ovarian = test system: OVCAR-4 ovarian
OVCAR-5 ovarian = test system: OVCAR-5 ovarian
OVCAR-8 ovarian = test system: OVCAR-8 ovarian
PC-3 prostate = test system: PC-3 prostate
RPMI-8226 leukemia = test system: RPMI-8226 leukemia
RXF 393 renal = test system: RXF 393 renal
SF-268 CNS = test system: SF-268 CNS
SF-295 CNS = test system: SF-295 CNS
SF-539 CNS = test system: SF-539 CNS
SK-MEL-2 melanoma = test system: SK-MEL-2 melanoma
SK-MEL-28 melanoma = test system: SK-MEL-28 melanoma
SK-MEL-5 melanoma = test system: SK-MEL-5 melanoma
SK-OV-3 ovarian = test system: SK-OV-3 ovarian
SN12C renal = test system: SN12C renal
SNB-19 CNS = test system: SNB-19 CNS
SNB-75 CNS = test system: SNB-75 CNS
SR leukemia = test system: SR leukemia
SW-620 colon = test system: SW-620 colon
T-47D breast = test system: T-47D breast
TK-10 renal = test system: TK-10 renal
U251 CNS = test system: U251 CNS
UACC-257 melanoma = test system: UACC-257 melanoma
UACC-62 melanoma = test system: UACC-62 melanoma
UO-31 renal = test system: UO-31 renal

What does the source list for `O=C(CP(c1ccccc1)c1ccccc1)c1cccc(C(=O)CP(c2ccccc2)c2ccccc2)c1`?
TGI (786-0 renal): > 100 µM; TGI (A549 NSCLC): > 100 µM; TGI (ACHN renal): > 100 µM; TGI (CAKI-1 renal): > 100 µM; TGI (CCRF-CEM leukemia): > 100 µM; TGI (COLO 205 colon): > 100 µM; TGI (DU-145 prostate): > 100 µM; TGI (EKVX NSCLC): > 100 µM; TGI (HCC-2998 colon): > 100 µM; TGI (HCT-116 colon): > 100 µM; TGI (HCT-15 colon): > 100 µM; TGI (HL-60(TB) leukemia): 42.8 µM; TGI (HOP-62 NSCLC): > 100 µM; TGI (HS 578T breast): > 100 µM; TGI (HT29 colon): > 100 µM; TGI (IGROV1 ovarian): > 100 µM; TGI (K-562 leukemia): > 100 µM; TGI (KM12 colon): > 100 µM; TGI (M14 melanoma): > 100 µM; TGI (MCF7 breast): > 100 µM; TGI (MDA-MB-231 breast): > 100 µM; TGI (MDA-MB-435): > 100 µM; TGI (MDA-N): > 100 µM; TGI (MOLT-4 leukemia): 48 µM; TGI (NCI-H226 lung): > 100 µM; TGI (NCI-H460 lung): > 100 µM; TGI (NCI/ADR-RES ovarian): > 100 µM; TGI (OVCAR-4 ovarian): > 100 µM; TGI (OVCAR-5 ovarian): > 100 µM; TGI (OVCAR-8 ovarian): > 100 µM; TGI (PC-3 prostate): > 100 µM; TGI (RPMI-8226 leukemia): 67.4 µM; TGI (RXF 393 renal): > 100 µM; TGI (SF-268 CNS): > 100 µM; TGI (SF-295 CNS): > 100 µM; TGI (SF-539 CNS): > 100 µM; TGI (SK-MEL-2 melanoma): > 100 µM; TGI (SK-MEL-28 melanoma): > 100 µM; TGI (SK-MEL-5 melanoma): > 100 µM; TGI (SK-OV-3 ovarian): > 100 µM; TGI (SN12C renal): > 100 µM; TGI (SNB-19 CNS): > 100 µM; TGI (SNB-75 CNS): > 100 µM; TGI (SR leukemia): 61.5 µM; TGI (SW-620 colon): > 100 µM; TGI (T-47D breast): 94.8 µM; TGI (TK-10 renal): > 100 µM; TGI (U251 CNS): > 100 µM; TGI (UACC-257 melanoma): > 100 µM; TGI (UACC-62 melanoma): > 100 µM; TGI (UO-31 renal): 50.8 µM
